The test system of this test is luciferase-expressing U-87 MG cells. The test is described as follows: Cancer treating effect in brain tumor model (bioluminescence signals). The format is in vivo, mouse. Here is the method:
The NP-cur aqueous dispersion prepared according to Example 1-1 was intravenously injected daily at a dose of 200 μL from day 3 of the transplantation of the cancer cells in the brain tumor model prepared according to Example 3-1. […] For the control groups to which the drug was not administered, a group (control of FIG. 11) to which the F-127 aqueous solution was intravenously injected daily for 3 weeks at a dose of 200 μL, and a group (free curcumin of FIG. 11) to which curcumin which was not loaded in the polymeric nanoparticles but was dissolved in an organic solvent, dimethyl sulfoxide (DMSO, Daejung Chemicals & Metals Co., LTD., Korea), was intraperitoneally injected at a dosage of 360 mg/kg daily for 3 weeks was selected to observe the bioluminescence signals in the same manner as in the NP-cur administration experimental group. Finally, the bioluminescence signals observed in the two control groups and experimental group and the results of comparative analysis thereof are shown in FIG. 11.

Each structure is given as a SMILES string.

`COc1cc(/C=C/C(=O)CC(=O)/C=C/c2ccc(O)c(OC)c2)ccc1O` [curcumin]: the “effect on tumor growth” value (NP-cur 0.2 mg/kg/d i.v., curcumin solution 360 mg/kg/d i.p.) is reported as “only slightly slowed”. Moreover, under “NP-cur 200 μL i.v. daily (0.2 mg/kg/d curcumin), free curcumin in DMSO i.p. 360 mg/kg daily for 3 weeks”, the “bioluminescence intensity of brain tumor over time (days 7, 14, 21)” value is given as “still showed a large signal increase”.

(Values after patent US20170209373A1, “MULTIFUNCTIONAL POLYMERIC NANOPARTICLE FOR DIAGNOSIS OR TREATMENT OF CEREBRAL DISEASES AND A PREPARATION METHOD THEREOF” (KOREA INSTITUTE OF SCIENCE AND TECHNOLOGY, priority 2016, published 2017).)
